Data set [1] in a line: Toxicity in female BALB/c athymic mouse assessed as mean corpuscular hemoglobin measured per cell at 150 mg/kg/day, po (reference value: 28.62 +/- 0.08 pg/cell). The data set is classed as organism-based. Particulars: in vivo.
Data set [2] can be described thus: Toxicity in BALB/c athymic mouse assessed as effect on blood arteries morphology at 150 mg/kg, po by Hematoxylin and eosin staining based analysis. The data set is classed as organism-based. Particulars: in vivo.
Data set [3] in a line: Toxicity in BALB/c athymic mouse xenografted with human MCF-7 cells assessed as change in body weight at 150 mg/kg, po administrated daily for 30 days. Particulars: in vivo, 720 h, time 30 day. The data set is classed as organism-based.
The nature of data set [4]: Toxicity in female BALB/c athymic mouse assessed as calcium level at 150 mg/kg/day, po (reference value: 8.73 +/- 0.10 mg/dl). To be noted: in vivo. It is filed as organism-based.
The nature of data set [5]: Toxicity in female BALB/c athymic mouse assessed as bilirubin total level at 150 mg/kg/day, po (reference value: 0.673 +/- 0.01 mg/dl). The data set is classed as organism-based. Particulars: in vivo.
A short description of data set [6]: Toxicity in female BALB/c athymic mouse assessed as potassium level at 150 mg/kg/day, po (reference value: 3.30 +/- 0.83 mEq/L). Particulars: in vivo. The data set is classed as organism-based.
A short description of data set [7]: Toxicity in BALB/c athymic mouse assessed as effect on interstitium morphology at 150 mg/kg, po by Hematoxylin and eosin staining based analysis. It is filed as organism-based. To be noted: in vivo.
The nature of data set [8]: Toxicity in BALB/c athymic mouse assessed as effect on distal tubules morphology at 150 mg/kg, po by Hematoxylin and eosin staining based analysis. It is filed as organism-based. To be noted: in vivo.
The next data set concerns MCF7. Nature of the data set: Antiproliferative activity against human MCF7 cells assessed as inhibition of cell proliferation incubated for 72 hrs by SRB assay. Particulars: MCF7, 72 h. It is filed as functional, cell-based.
A short description of data set [9]: Toxicity in female BALB/c athymic mouse assessed as bilirubin indirect level at 150 mg/kg/day, po (reference value: 3.05 +/- 0.32 mg/dl). It is filed as organism-based. Particulars: in vivo.
Data set [10] in a line: Toxicity in female BALB/c athymic mouse assessed as eosinophil count at 150 mg/kg/day, po (reference value: 0.84 +/- 0.04 %). To be noted: in vivo. The data set is classed as organism-based.
Data set [11] in a line: Toxicity in female BALB/c athymic mouse assessed as mean corpuscular volume at 150 mg/kg/day, po (reference value: 53.06 +/- 0.06 fL). The data set is classed as organism-based. Particulars: in vivo.
The test system of another data set is Mitochondrial membrane. Nature of the data set: Induction of mitochondrial membrane potential loss in human MDA-MB-231 cells assessed as increase in green fluorescence incubated for 48 hrs by rhodamine-123 staining based fluorescence microscopic analysis. The data set is classed as cell membranes.
A short description of data set [12]: Toxicity in female BALB/c athymic mouse assessed as AST level at 150 mg/kg/day, po (reference value: 105.92 +/- 6.41 U/L). The data set is classed as organism-based. Particulars: in vivo.
Another data set deals with MDA-MB-231. Nature of the data set: Antiproliferative activity against human MDA-MB-231 cells assessed as inhibition of cell proliferation incubated for 72 hrs by SRB assay. Particulars: MDA-MB-231, 72 h. The data set is classed as functional, cell-based. Background: The SRB assay estimates cell density from bound dye.
A short description of data set [13]: Toxicity in female BALB/c athymic mouse assessed as platelet at 150 mg/kg/day, po (reference value: 95.11 +/- 7.23 10^3/uL). It is filed as organism-based. Particulars: in vivo.
Data set [14] can be described thus: Toxicity in female BALB/c athymic mouse assessed as effect on bronchial morphology at 150 mg/kg, po by Hematoxylin and eosin staining based analysis. It is filed as organism-based. To be noted: in vivo.

Structures are written as SMILES. The source made the active and inactive calls. The rule behind the calls is not given here.

As a reminder, the IC50 is the point on the concentration scale where inhibition reaches its midpoint. Regarding `COc1ccc2c(c1OC)C(=O)O[C@@H]2[C@H]1c2c(c(NC(=O)Nc3ccc(Cl)cc3Cl)c3c(c2OC)OCO3)CCN1C`, the Activity in [1] was 29.7 pg; in data set [2], “Non-toxic”; in data set [3], “Non-toxic”; in data set [4], 7.9 mg/dL; in data set [5], 0.56 mg/dL; in [6], 3.3 mEq/L. Besides, the Activity result in data set [7] is “Non-toxic”; in [8], “Non-toxic”; in data set [9], 3.08 mg/dL; in [10], 0.9%; in [11], 58.1 fL; in data set [12] it was 106.86 U/L. Besides, the results for the Activity in [13] and in data set [14] were 89.07 10^3 /uL and “Non-toxic”, respectively. The IC50 was determined as 4.77 µM with MCF7 and 6.56 µM in the data set with MDA-MB-231. For the same molecule, in the data set with Mitochondrial membrane, the result was Active.

(Values after ChEMBL document CHEMBL6120986, “In silico inspired design of urea noscapine congeners as anticancer agents: Chemical synthesis and experimental evaluation using breast cancer cells and a xenograft mouse model” (Eur J Med Chem, 2025).)
